PubChem BioAssay AID859 (Vanderbilt High Throughput Screening Facility, 2007)

Biological target: Muscarinic acetylcholine receptor M1 (Rattus norvegicus) (UniProt P08482)
Test: rat M1 muscarinic receptor antagonist potency, dose response, cell-based, calcium fluorescence (AID 859)
Conditions: M1-expressing cells, antagonist mode vs EC80

Muscarinic acetylcholine receptor M1 (Rattus norvegicus), sequence (P08482 whole entry, looked up): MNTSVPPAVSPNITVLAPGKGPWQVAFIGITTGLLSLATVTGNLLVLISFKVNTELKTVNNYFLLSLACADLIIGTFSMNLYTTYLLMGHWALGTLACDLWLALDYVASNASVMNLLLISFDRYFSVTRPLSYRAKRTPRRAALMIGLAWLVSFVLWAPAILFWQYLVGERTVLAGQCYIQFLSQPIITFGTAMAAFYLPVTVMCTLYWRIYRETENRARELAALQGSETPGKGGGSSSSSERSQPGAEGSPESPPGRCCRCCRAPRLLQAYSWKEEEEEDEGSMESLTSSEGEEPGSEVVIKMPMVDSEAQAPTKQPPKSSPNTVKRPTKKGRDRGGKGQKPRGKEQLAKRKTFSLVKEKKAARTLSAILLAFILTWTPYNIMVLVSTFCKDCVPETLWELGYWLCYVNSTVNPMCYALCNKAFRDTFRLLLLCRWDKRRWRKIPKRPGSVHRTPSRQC

`O=C(CN1CCN(CCOCCO)CC1)N1c2ccccc2Sc2ccc(Cl)cc21` and `COC(=O)Nc1ccc2c(c1)N(C(=O)CCN1CCOCC1)c1ccccc1S2` are within 1.5-fold of each other in IC50: 1030 nM for the first, 1060 nM for the second.

First: CN1CCN(C2=Nc3ccccc3Oc3ccc(Cl)cc32)CC1
Second: CN1CCC(OC(=O)C2c3ccccc3Oc3ccccc32)CC1
The IC50 of the first is 130-fold higher: 1210 nM for the first, 9.27 nM for the second.

Going from `CN(C)CCOC(=O)C(c1ccccc1)C1(O)CCCC1` (stereo unspecified) to `O=C(OCCN1CCCC1)C1(c2ccccc2)CCCC1`, the IC50 rises from 25.7 nM to 182 nM (7.1-fold).

Compared with `CCCC(CCC)C(=O)OC1C[C@H]2CC[C@@H](C1)[N+]2(C)C` (stereo partly specified), `CCC(C)N(CCNC(=O)CC1Oc2ccc(C)cc2NC1=O)C1CCCCC1` (stereo unspecified) is 3.3-fold higher in IC50: 302 nM for the first, 1000 nM for the second. The first is the more potent here.

First: Cc1onc(-c2ccccc2Cl)c1C(=O)Nc1ccc(-c2nnc3n2CCCCC3)cc1
Second: CC1CCN(Cc2ccc(NC(=O)CC3Oc4ccccc4NC3=O)cc2)CC1 (stereo unspecified)
The IC50 of the first is 2.1-fold higher: 491 nM for the first, 234 nM for the second.

Compared with `CCOc1nc(C#N)nc(N2CCCCC2)n1`, `CCN1C(=O)/C(=C\N2CCCCCC2)SC1=S` is 3.1-fold lower in IC50: 1350 nM for the first, 438 nM for the second.

First: CCN(CC)CCOC(=O)C(c1ccccc1)c1ccccc1
Second: CN(C)CCCOC(=O)C1c2ccccc2Oc2ccccc21
The IC50 of the first is 5.1-fold higher: 327 nM for the first, 63.7 nM for the second.

Compared with `Cc1ccc2c(c1)NC(=O)C(CC(=O)Nc1ccc(CN3CCC(C)CC3)cc1)O2` (stereo unspecified), `CCOC(=O)Nc1ccc2c(c1)N(C(=O)N1CCN(C)CC1)c1ccccc1S2` is 4.9-fold higher in IC50: 290 nM for the first, 1410 nM for the second.

Compared with `CN1CCCN=C1COC(=O)C(O)(c1ccccc1)C1CCCCC1` (stereo unspecified), `OC(CCN1CCCC1)(c1ccccc1)C1CCCCC1` (stereo unspecified) is 9.2-fold higher in IC50: 12.6 nM for the first, 116 nM for the second.

`O=C1CC(N2CCN(c3ccc(S(=O)(=O)N4CCOCC4)cc3)CC2)C(=O)N1Cc1ccccc1` (stereo unspecified) and `O=C1CC(N2CCN(C/C=C/c3ccccc3)CC2)C(=O)N1Cc1cccs1` (stereo unspecified) are within 1.5-fold of each other in IC50: 777 nM for the first, 846 nM for the second.

Going from `Cn1cc(CN2CCN(c3ccccc3)CC2)c2ccccc21` to `CN1CCN(CCC(C#N)(c2ccccc2)c2ccccc2)CC1`, the IC50 rises from 226 nM to 395 nM (1.7-fold). The first is the more potent here.

Going from `Cc1cccc(Cn2c(Sc3nc(C)cs3)nc3c2c(=O)[nH]c(=O)n3C)c1` to `Cc1ccc2nc(NC3=NCN(CCN4CCOCC4)CN3)nc(C)c2c1`, the IC50 falls from 20.2 nM to 2.77 nM (7.3-fold). The second is the more potent here.

Compared with `Clc1ccc(OCc2nnc(SCCN3CCCCC3)n2Cc2ccco2)cc1`, `OC(CCN1CCCCC1)(c1ccccc1)c1ccccc1` is 24-fold lower in IC50: 1400 nM for the first, 58 nM for the second. The second is the more potent here.

First: CC[N+]1(C)CCCC(OC(=O)C(O)(c2ccccc2)c2ccccc2)C1 (stereo unspecified)
Second: O=C(CN1CCCC(O)C1)N1c2ccccc2Sc2ccc(C(F)(F)F)cc21 (stereo unspecified)
The IC50 of the first is 48-fold lower: 15.9 nM for the first, 766 nM for the second. The first is the more potent here.

First: Cc1nc2c(o1)CCc1ccccc1C2N1CCN(C)CC1 (stereo unspecified)
Second: CN(C)CCC=C1c2ccccc2CCc2ccccc21
The IC50 of the first is 14-fold lower: 46.4 nM for the first, 637 nM for the second. The first is the more potent here.

First: CCN(CCCCOC(=O)c1ccc(OC)c(OC)c1)C(C)Cc1ccc(OC)cc1 (stereo unspecified)
Second: Cc1c(C(=O)OC(C)CCN(C)C)oc2ccccc12 (stereo unspecified)
The IC50 of the first is 1.7-fold higher: 1160 nM for the first, 681 nM for the second.

Compared with `CCN1CCN(Cc2cc(=O)oc3cc(C)cc(C)c23)CC1`, `C=CCSc1nnc2c(n1)OC(c1cccnc1)N(C(C)=O)c1ccccc1-2` (stereo unspecified) is 5.1-fold lower in IC50: 974 nM for the first, 190 nM for the second. The second is the more potent here.

Compared with `CNCCCC1c2ccccc2C=Cc2ccccc21`, `c1ccc(-c2cc(-c3nnc4sc(-c5ccccn5)nn34)[nH]n2)cc1` is 3-fold lower in IC50: 1260 nM for the first, 414 nM for the second.
